From US20100022600A1, “METHODS AND COMPOSITIONS FOR TREATING CENTRAL NERVOUS SYSTEM TUMORS” (priority 2006, published 2010)

Tests used:
human glioma cells A172 = test: MTT viability assay, human A172 glioma cells; assay type: cell-based; settings: 30 μM pio; 3, 5 and 7 d
Procedure: Rat C6 glioma cells were grown in DMEM and human glioma cells (U87, A172) in RPMI, supplemented with 10% (v/v) fetal calf serum, 100 U/mL penicillin and 100 U/mL streptomycin in a 5% CO2 atmosphere. Primary astrocyte cultures were prepared as described previously (J Neurosci 1998; 18: 4451-60) and grown in DMEM, supplemented with 2.5% (v/v) fetal calf serum, 100 U/mL penicillin and 100 U/mL streptomycin in a 5% CO2 atmosphere. […] Experiments were performed in triplicate.

[1] = Clinical assessment of neurological deficits in C6 rat glioma model; assay type: in vivo; settings: intracerebral treatment, 21 d
Procedure: After striatal injection of C6 cells and intracerebral treatment with pio or vehicle for 21 d, the animals were examined for neurological deficits. Neurological function was quantified by evaluation of hemiparesis, cycling and immobility (J Neurosurg 1986; 65: 222-9, Stroke 1999; 30: 427-31; discussion 431-2). Hemiparesis was assessed by forelimb flexion and immobility by the loss of ability to walk a distance greater than 15 cm. One point was given for each negative finding and total score then computed. The scores of the treated and untreated group were averaged. A blinded observer performed neurological examinations.

cleaved caspase-3 [2] = test: Western blot of cleaved caspase-3 in whole-hemisphere lysates, C6 rat glioma model; assay type: in vivo; settings: 6 d of pio treatment
Procedure: (§1) For western-blot analysis, tumor-containing hemispheres were homogenized in Tris-HCl [50 mM Tris-HCl pH8, 120 mM NaCl, 5 mM EDTA, 0.5% (v/v) NP-40, […] phenylmethylsulfonyl fluoride (PMSF)] and sonicated. Homogenates were collected by centrifugation (15 min 11000 g. 4° C.) and protein concentration in the supernatant was determined using the Bio-Rad Protein Assay (Biorad, Munich, Germany). Lysates (20-40 μg) were separated on a 7% (w/v) sodium dodecyl sulfate (SDS)-polyacrylamide gel under reducing conditions and transferred to a PVDF membrane (Millipore, Bedford, Mass., USA). Non-specific binding was blocked by incubation with 5% (w/v) skimmed milk in TBS for 2 h. Following incubation with the primary antibody overnight at 4° C. [rabbit anti-BAX 1:1000, rabbit anti-cleaved caspase-3 1:1000, mouse […] 1:1000, goat anti-MMP-9 1:1000 in TBS containing 0.1% (v/v) Tween 20] membranes were washed three times in TBS/Tween for 5 min and subsequently incubated for 120 min in TBS/Tween containing secondary peroxidase-conjugated antibody at room temperature (anti-rabbit 1:1000, anti-mouse 1:1000; anti-goat 1:1000 respectively). Signals were visualized by chemoluminescence (Pierce, Rockford, Ill., USA) and band intensities were quantified with NIH Image 1.62 software (Bethesda, Md., USA).

cleaved caspase-3 [3] = test: Immunohistochemistry of cleaved caspase-3 in tumors, C6 rat glioma model; assay type: in vivo; settings: 6 to 14 days of pio treatment, significant maximum at 9 d
Procedure: Frozen brain sections were first blocked with 5% normal goat serum or normal horse serum in PBS and subsequently incubated with rabbit anti-Ki-67 antibody (1:200 dilution), mouse anti-CS-56 (1:100 dilution), goat anti-MMP-9 (1:100 dilution) or rabbit anti-cleaved caspase-3 antibody (1:200 dilution) at 4° C. overnight. Sections were washed extensively with PBS before incubation with secondary antibodies. Incubation was carried at room temperature for 1 h. After washing with PBS three times, stained slides were mounted with PBS/glycerol (1:1) and viewed under a fluorescent microscope (Leica, Germany). […] The percentage of cleaved caspase-3 positive cells was assessed by counting the immunopositive cells in 1×10^3 tumor (DAPI stain) cells and statistically compared.

C6 glioma tumor cells = test: BrdU incorporation in vivo; design: species or system rat; settings: 14 d
Procedure: At thirteen days of treatment animals were intraperitoneally injected with 300 mg/kg of 5-bromodeoxyuridine (BrdU; Sigma, St. Louis, Mo.), a thymidine analog that incorporates into the DNA of dividing cells during S phase and can be detected immunohistochemically. Twenty-four hours later, these animals were anesthetized and perfused with phosphate-buffered saline (PBS). Brains were dissected, frozen, cut and immunostained in the following manner: Sections were fixed in 4% paraformaldehyde, washed in PBS, and incubated in 2 N HCl for 10 min at room temperature. Sections were again washed in PBS and incubated in BrdU primary antibody (rat monoclonal 1:100, Abcam, Cambridge, UK) in PBS containing 5% normal goat serum overnight at 4 C. After washing with PBS, sections were incubated in rhodamine-labeled anti-rat secondary antibody (1:100, Jackson, West Grove, Pa., USA) in PBS containing 5% normal goat serum for 1 h at room temperature. The number of dividing cells present in the tumor of these BrdU-stained sections was counted and compared to total amount of tumor cells stained with DAPI.

CS-56 [4] = test: CS-56 expression in vivo (western blot, immunohistochemistry); design: species or system rat
Procedure: as §1, with “Md., USA). Frozen brain sections were first blocked with 5% normal goat serum or normal horse serum in PBS and subsequently incubated with rabbit anti-Ki-67 antibody (1:200 dilution), mouse anti-CS-56 (1:100 dilution), goat anti-MMP-9 (1:100 dilution) or rabbit anti-cleaved caspase-3 antibody (1:200 dilution) at 4° C. overnight. Sections were washed extensively with PBS before incubation with secondary antibodies. Incubation was carried at room temperature for 1 h. After washing with PBS three times, stained slides were mounted with PBS/glycerol (1:1) and viewed under a fluorescent microscope (Leica, Germany).” for “Md., USA).”

CS-56 [5] = test: CS-56 expression in tumor cells in vitro; assay type: cell-based; settings: data not shown

cleaved caspase-3 expression (immunohistochemistry) (cleaved caspase-3 [3]): elevated cleaved caspase-3 expression
Compound: CCc1ccc(CCOc2ccc(CC3SC(=O)NC3=O)cc2)nc1 (stereo not shown) [pioglitazone, 5-[4-[2-(5-ethylpyridin-2-yl)ethoxyl]benzyl]thiazolidine-2,4-dione]
cellular viability, effect in words (human glioma cells A172): significantly reduced cellular viability
clinical outcome overall [1]: significant better clinical outcome
cycling ([1]; versus vehicle): no cycling
hemiparesis ([1]; versus vehicle): less hemiparesis
immobility ([1]; versus vehicle): less immobility
induction of cleaved caspase-3 (densitometry) (cleaved caspase-3 [2]): 2.88 fold
BrdU-incorporation (C6 glioma tumor cells): reduced
percentage of BrdU positive cells (C6 glioma tumor cells): significantly lower
CS-56 expression (western blot) (CS-56 [4]; tissue lysates): upregulation of CS-56 expression
increase in CS-56 protein levels (densitometry) (CS-56 [4]; tissue lysates): around 56%
CS-56 expression (immunohistochemistry) (CS-56 [4]; tumor margin towards healthy brain tissue): upregulation of CS-56
CS-56 expression in vitro (CS-56 [5]): highly upregulated
